pIC50: −log10 of the molar value. Some results are limits rather than exact numbers.

For this experiment, the target named is T1, human kinase Mps-1 (Homo sapiens, UniProt P33981).
T1 construct: N-terminally GST-tagged human full length recombinant Mps-1 kinase; GST (N); purchased Invitrogen, Karslruhe, Germany PV4071
T1 sequence (P33981 1-857): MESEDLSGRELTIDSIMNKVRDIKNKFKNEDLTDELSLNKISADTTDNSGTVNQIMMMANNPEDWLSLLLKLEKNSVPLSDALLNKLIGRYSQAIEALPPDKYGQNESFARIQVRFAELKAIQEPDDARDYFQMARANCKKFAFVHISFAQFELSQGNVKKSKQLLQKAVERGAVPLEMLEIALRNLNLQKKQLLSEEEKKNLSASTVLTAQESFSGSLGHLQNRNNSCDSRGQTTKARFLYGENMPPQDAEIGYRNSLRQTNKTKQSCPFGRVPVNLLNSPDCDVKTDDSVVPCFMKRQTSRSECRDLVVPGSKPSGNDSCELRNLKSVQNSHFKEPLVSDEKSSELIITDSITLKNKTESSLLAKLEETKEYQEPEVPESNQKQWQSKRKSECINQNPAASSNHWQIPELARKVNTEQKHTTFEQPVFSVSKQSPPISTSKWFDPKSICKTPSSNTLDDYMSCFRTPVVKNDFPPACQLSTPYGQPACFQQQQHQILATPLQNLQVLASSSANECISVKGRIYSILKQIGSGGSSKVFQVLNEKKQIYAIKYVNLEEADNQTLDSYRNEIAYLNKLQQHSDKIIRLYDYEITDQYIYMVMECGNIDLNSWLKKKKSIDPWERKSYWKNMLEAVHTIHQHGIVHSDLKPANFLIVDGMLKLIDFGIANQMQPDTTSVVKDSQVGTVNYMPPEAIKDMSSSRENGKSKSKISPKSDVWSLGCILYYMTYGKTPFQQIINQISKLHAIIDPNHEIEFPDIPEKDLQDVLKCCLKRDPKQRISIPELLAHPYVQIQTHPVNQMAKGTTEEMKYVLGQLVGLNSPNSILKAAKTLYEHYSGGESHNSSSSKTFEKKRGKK
Nature of the experiment: Mps-1 kinase assay (HTRF). The class given is biochemical. The procedure:
The human kinase Mps-1 phosphorylates a biotinylated substrate peptide. Detection of the phosphorylated product is achieved by homogenous time-resolved fluorescence resonance energy transfer (HTRF) from Europium-labelled anti-phospho-Serine/Threonine antibody as donor to streptavidin labelled with cross-linked allophycocyanin (SA-XLent) as acceptor. Compounds are tested for their inhibition of the kinase activity.
N-terminally GST-tagged human full length recombinant Mps-1 kinase (purchased from Invitrogen, Karslruhe, Germany, cat. no PV4071) was used. As substrate for the kinase reaction a biotinylated peptide of the amino-acid sequence […] (C-terminus in amide form, purchased from Biosynthan GmbH, Berlin) was used.
The concentration of Mps-1 in the assay was adjusted to the activity of the enzyme lot and was chosen appropriate to have the assay in the linear range, typical enzyme concentrations were in the range of about 1 nM (final conc. in the 5 μl assay volume).
The resulting mixture was incubated 1 h at 22° C. to allow the binding of the phosphorylated peptide to the anti-phospho(Ser/Thr)-Europium-antibody. Subsequently the amount of phosphorylated substrate was evaluated by measurement of the resonance energy transfer from the Europium-labelled anti-phospho(Ser/Thr) antibody to the Streptavidin-XLent.

What is called pIC50 is the negative decadic logarithm of the IC50, by convention in mol/L. Lower therefore signals a high IC50. In turn, `CNCCN(C)C(=O)c1ccc(Nc2nc3ccc(-c4ccc(C(=O)NCC(F)(F)F)cc4)cn3n2)c(OC)c1` [Example 11.007, 3-methoxy-N-methyl-N-[2-(methylamino)ethyl]-4-[(6-{4-[(2,2,2-trifluoroethyl)carbamoyl]phenyl}[1,2,4]triazolo[1,5-a]pyridin-2-yl)amino]benzamide] gave a pIC50 not below 9.00. `N#Cc1ccccc1Nc1nc2ccc(-c3cccc(C(=O)NCCC(F)(F)F)c3)cn2n1` [Example 11.048, 3-{2-[(2-cyanophenyl)amino][1,2,4]triazolo[1,5-a]pyridin-6-yl}-N-(3,3,3-trifluoropropyl)benzamide] showed a negative-log IC50 (pIC50) of 8.40. `CCNC(=O)c1ccc(Nc2nc3ccc(-c4cccc(C(=O)NCC(F)(F)F)c4)cn3n2)c(OC)c1` [Example 11.081, N-ethyl-3-methoxy-4-[(6-{3-[(2,2,2-trifluoroethyl)carbamoyl]phenyl}[1,2,4]triazolo [1,5-a]pyridin-2-yl)amino]benzamide] showed a pIC50 not below 9.00. For `N#Cc1ccccc1Nc1nc2ccc(-c3cc(F)cc(C(=O)NCC(F)(F)F)c3)cn2n1` [Example 11.059, 3-{2-[(2-cyanophenyl)amino][1,2,4]triazolo[1,5-a]pyridin-6-yl}-5-fluoro-N-(2,2,2-trifluoroethyl)benzamide], the pIC50 was 7.90. `COc1cc(C(=O)N(C)CCN(C)C(C)=O)ccc1Nc1nc2ccc(-c3ccc(C(=O)NCC(F)(F)F)cc3)cn2n1` [Example 11.020, N-{2-[acetyl(methyl)amino]ethyl}-3-methoxy-N-methyl-4-[(6-{4-[(2,2,2-trifluoroethyl)carbamoyl]phenyl}[1,2,4]triazolo [1,5-a]pyridin-2-yl)amino]benzamide] gave a pIC50 of 8.52.

Take `N#Cc1ccccc1Nc1nc2ccc(-c3cccc(C(=O)NCC(F)(F)C(F)(F)F)c3F)cn2n1` [Example 11.063, 3-{2-[(2-cyanophenyl)amino][1,2,4]triazolo[1,5-a]pyridin-6-yl}-2-fluoro-N-(2,2,3,3,3-pentafluoropropyl)benzamide]: the negative logarithm of the IC50 (pIC50) was 7.76.

With `CCOc1cc(C(=O)N(C)CCO)ccc1Nc1nc2ccc(-c3ccc(C(=O)NCC(F)(F)F)cc3)cn2n1` [Example 11.033, 3-ethoxy-N-(2-hydroxyethyl)-N-methyl-4-[(6-{4-[(2,2,2-trifluoroethyl)carbamoyl]phenyl}[1,2,4]triazolo [1,5-a]pyridin-2-yl)amino]benzamide], the negative-log IC50 (pIC50) is not below 9.00. `N#Cc1ccccc1Nc1nc2ccc(-c3cccc(C(=O)NCC(F)F)c3F)cn2n1` [Example 11.069, 3-{2-[(2-cyanophenyl)amino][1,2,4]triazolo[1,5-a]pyridin-6-yl}-N-(2,2-difluoroethyl)-2-fluorobenzamide] had a pIC50 of 7.47. The value for `N#Cc1ccccc1Nc1nc2ccc(-c3cccc(C(=O)NCC(F)F)c3)cn2n1` [Example 11.050, 3-{2-[(2-cyanophenyl)amino][1,2,4]triazolo[1,5-a]pyridin-6-yl}-N-(2,2-difluoroethyl)benzamide] was 8.38; that for `CCOc1cc(C(=O)NCCO)ccc1Nc1nc2ccc(-c3ccc(C(=O)NCC(F)(F)F)cc3)cn2n1` [Example 11.028, 3-ethoxy-N-(2-hydroxyethyl)-4-[(6-{4-[(2,2,2-trifluoroethyl)carbamoyl]phenyl}[1,2,4]triazolo [1,5-a]pyridin-2-yl)amino]benzamide] was not below 9.00; that for `COc1cc(C(=O)NCC(F)(F)F)ccc1Nc1nc2ccc(-c3cccc(C(=O)NCC(C)(C)C)c3)cn2n1` [Example 11.084, 4-[(6-{3-[(2,2-dimethylpropyl)carbamoyl]phenyl}[1,2,4]tria-zolo[1,5-a]pyridin-2-yl)amino]-3-methoxy-N-(2,2,2-trifluoroethyl)benzamide] was 8.97.

In turn, `CC(C)[C@H](C)NC(=O)c1cccc(-c2ccc3nc(Nc4ccccc4C#N)nn3c2)c1` [Example 11.051, 3-{2-[(2-cyanophenyl)amino][1,2,4]triazolo[1,5-a]pyridin-6-yl}-N-[(2S)-3-methylbutan-2-yl]benzamide] had a pIC50 of 8.25. On to `Cc1cccc(-c2ccc3nc(Nc4ccccc4C#N)nn3c2)c1` [Example 3.3, 2-{[6-(3-methylphenyl)[1,2,4]triazolo[1,5-a]pyridin-2-yl]amino}benzonitrile], for which the negative-log IC50 (pIC50) is 6.20. For `N#Cc1ccccc1Nc1nc2ccc(-c3cccc(F)c3)cn2n1` [Example 3.12, 2-{[6-(3-fluorophenyl)[1,2,4]triazolo[1,5-a]pyridin-2-yl]amino}benzonitrile] the value was 6.05.

With `CC(C)(C)CNC(=O)c1cccc(-c2ccc3nc(Nc4ccc(C(=O)NC(C)(C)CO)cc4OCC(F)(F)F)nn3c2)c1` [Example 11.092, 4-[(6-{3-[(2,2-dimethylpropyl)carbamoyl]phenyl}[1,2,4]tria-zolo[1,5-a]pyridin-2-yl)amino]-N-(1-hydroxy-2-methylpropan-2-yl)-3-(2,2,2-trifluoroethoxy)benzamide], the pIC50 is not below 9.00. `CNS(=O)(=O)c1cccc(-c2ccc3nc(Nc4cccc(F)c4C#N)nn3c2)c1` [Example 11.098, 3-{2-[(2-cyano-3-fluorophenyl)amino][1,2,4]triazolo[1,5-a]pyridin-6-yl}-N-methylbenzenesulfonamide] had a pIC50 of 7.01. Consider `N#Cc1ccccc1Nc1nc2ccc(-c3ccc(C(=O)NCC(F)(F)F)cc3)cn2n1` [Example 11.010, 4-{2-[(2-cyanophenyl)amino][1,2,4]triazolo[1,5-a]pyridin-6-yl}-N-(2,2,2-trifluoroethyl)benzamide], for which the pIC50 is 8.79.

`CCOc1cc(C(=O)NC(C)(C)C)ccc1Nc1nc2ccc(-c3ccc(C(=O)NCC(F)(F)F)cc3)cn2n1` [Example 11.030, N-tert-butyl-3-ethoxy-4-[(6-{4-[(2,2,2-trifluoroethyl)carbamoyl]phenyl}[1,2,4]triazolo [1,5-a]pyridin-2-yl)amino]benzamide] gave a pIC50 not below 9.00. The value for `C[C@H](O)CNC(=O)c1cccc(-c2ccc3nc(Nc4ccccc4C#N)nn3c2)c1` [Example 11.071, 3-{2-[(2-cyanophenyl)amino][1,2,4]triazolo[1,5-a]pyridin-6-yl}-N-[(2S)-2-hydroxypropyl]benzamide] was 7.43; that for `COc1cc(C(=O)NCCS(C)(=O)=O)ccc1Nc1nc2ccc(-c3cccc(C(=O)NCC(C)(C)C)c3)cn2n1` [Example 11.078, 4-[(6-{3-[(2,2-dimethylpropyl)carbamoyl]phenyl}[1,2,4]tria-zolo[1,5-a]pyridin-2-yl)amino]-3-methoxy-N-[2-(methylsulfonyl)ethyl]benzamide] was not below 9.00. Turning to `COc1ccc(Nc2nc3ccc(-c4cc(C)c(O)c(C)c4)cn3n2)c(OC)c1` [Example 1.2, 4-{2-[(2,4-dimethoxyphenyl)amino] [1,2,4]triazolo[1,5-a]pyridin-6-yl}-2,6-dimethylphenol], the pIC50 was 6.74. The value for `Cc1cc(-c2ccc3nc(Nc4cncnc4)nn3c2)cc(C)c1O` [Example 1.4, 2,6-dimethyl-4-[2-(pyrimidin-5-ylamino)[1,2,4]triazolo [1,5-a]pyridin-6-yl]phenol] was 5.57; that for `CC(F)(F)CNC(=O)c1cccc(-c2ccc3nc(Nc4ccccc4C#N)nn3c2)c1` [Example 11.041, 3-{2-[(2-cyanophenyl)amino][1,2,4]triazolo[1,5-a]pyridin-6-yl}-N-(2,2-difluoropropyl)benzamide] was 8.60; that for `CC(C)(C)CNC(=O)c1ccc(-c2ccc3nc(Nc4ccccc4C#N)nn3c2)cc1` [Example 11.012, 4-{2-[(2-cyanophenyl)amino][1,2,4]triazolo[1,5-a]pyridin-6-yl}-N-(2,2-dimethylpropyl)benzamide] was 8.08. For `N#Cc1ccccc1Nc1nc2ccc(-c3cccc(C(=O)NCC(F)(F)F)c3F)cn2n1` [Example 11.061, 3-{2-[(2-cyanophenyl)amino][1,2,4]triazolo[1,5-a]pyridin-6-yl}-2-fluoro-N-(2,2,2-trifluoroethyl)benzamide], the pIC50 is 7.89.

For the origin of these results see US20130121994A1, “TRIAZOLOPYRIDINE DERIVATIVES” (BAYER INTELLECTUAL PROPERTY GMBH, priority 2009, published 2013).
